In patent US9845322B2 (Hoffmann-La Roche Inc., priority 2016, dated 2017) one finds IC50 data, which are given here for 31 compounds.

In this assay the test system is HBsAg secretion in HepG2.2.15 cells. As to the kind of experiment: HBsAg assay (chemiluminescence immunoassay of secreted HBsAg in culture supernatant). The class given is cell-based, HBV. To be noted: concentration at which HBsAg secretion was reduced by 50% compared to the no drug control, read-out: IC50 (HBsAg assay). In outline:
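HepG2.2.15 cells (1.5×10^4/well, duplicate) treated with three-fold compound dilutions, 1% DMSO final, DMSO as no-drug control. Secreted HBsAg in supernatant quantified semi-quantitatively by chemiluminescence immunoassay; IC50 is concentration reducing HBsAg 50% versus no-drug control.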

Setting [1] is: Hepatitis B virus, HepG2.2.15, HepG2.2.15 cells.

Read-outs that look alike come from different tables or passages of the source.

What is called IC50 is the concentration at which inhibition is half-maximal.

`COC(=O)CCCCOc1cc(N2CCc3nc(-c4ncccn4)ncc3C2C)cc(F)c1F` (stereo not shown) [Example 62, methyl 5-[2,3-difluoro-5-(5-methyl-2-pyrimidin-2-yl-7,8-dihydro-5H-pyrido[4,3-d]pyrimidin-6-yl)phenoxy]pentanoate]: the IC50 under setting [1] was found to be 494 nM.
On the same count and under the same terms, the value for `CC1c2cnc(-c3ncccn3)nc2CCN1c1cc(F)cc(C(F)(F)F)c1` (stereo not shown) [Example 81, 6-[3-fluoro-5-(trifluoromethyl)phenyl]-5-methyl-2-pyrimidin-2-yl-7,8-dihydro-5H-pyrido[4,3-d]pyrimidine] was 131 nM.
Still for that read-out and setting: the value for `CC1c2cnc(-c3ncccn3)nc2CCN1c1cc(F)c(F)c(OCCC(=O)O)c1` (stereo not shown) [Example 51, 3-[2,3-difluoro-5-(5-methyl-2-pyrimidin-2-yl-7,8-dihydro-5H-pyrido[4,3-d]pyrimidin-6-yl)phenoxy]propanoic acid] was 2670 nM.
With `CC1c2cnc(-c3ncccn3)nc2CCN1c1cc(OCC2CSC2)cc(F)n1` (stereo not shown) [Example 194, 6-[6-fluoro-4-(thietan-3-ylmethoxy)-2-pyridyl]-5-methyl-2-pyrimidin-2-yl-7,8-dihydro-5H-pyrido[4,3-d]pyrimidine], the IC50 under setting [1] is 43 nM.
Take `CC1c2cnc(-c3ncccn3)nc2CCN1c1cc(F)c(F)c(OCCCNC(=O)OC(C)(C)C)c1` (stereo not shown) [Example 90, tert-butyl N-[3-[2,3-difluoro-5-(5-methyl-2-pyrimidin-2-yl-7,8-dihydro-5H-pyrido[4,3-d]pyrimidin-6-yl)phenoxy]propyl]carbamate]: the IC50 under setting [1] was found to be 22 nM.
As to `COc1cc(N2CCc3nc(-c4ncccn4)ncc3C2C)cc(Cl)c1F` (single isomer, unassigned; (+)) [Example 42, (+)-6-(3-chloro-4-fluoro-5-methoxy-phenyl)-5-methyl-2-pyrimidin-2-yl-7,8-dihydro-5H-pyrido[4,3-d]pyrimidine], the IC50 (HepG2.2.15 cells) is 3250 nM.
With `CC1c2cnc(-c3ncccn3)nc2CCN1c1cc(OCCCOCC(N)=O)cc(F)n1` (stereo not shown) [Example 163, 2-[3-[[2-fluoro-6-(5-methyl-2-pyrimidin-2-yl-7,8-dihydro-5H-pyrido[4,3-d]pyrimidin-6-yl)-4-pyridyl]oxy]propoxy]acetamide], the IC50 under setting [1] amounted to 35 nM.
Turning to `COc1cc(F)nc(N2CCc3nc(-c4ncccn4)ncc3C2C)c1` (single isomer, unassigned; (+)) [Example 139, (+)-6-(6-fluoro-4-methoxy-2-pyridyl)-5-methyl-2-pyrimidin-2-yl-7,8-dihydro-5H-pyrido[4,3-d]pyrimidine], the IC50 (HepG2.2.15 cells) came to 1590 nM.
Regarding `CC1c2cnc(-c3ncccn3)nc2CCN1c1cc(O)c(F)c(F)c1` (single isomer, unassigned; (-)) [Example 45, (−)-2,3-difluoro-5-(5-methyl-2-pyrimidin-2-yl-7,8-dihydro-5H-pyrido[4,3-d]pyrimidin-6-yl)phenol], the IC50 (HepG2.2.15 cells) was found to be 176 nM.
Turning to `CC1c2cnc(-c3ccccn3)nc2CCN1c1cc(F)c(F)c(OCCCS(C)(=O)=O)c1` (stereo not shown) [Example 33, 6-[3,4-difluoro-5-(3-methylsulfonylpropoxy)phenyl]-5-methyl-2-(2-pyridyl)-7,8-dihydro-5H-pyrido[4,3-d]pyrimidine], the concentration for half-maximal inhibition (IC50) under setting [1] came to 48 nM.
Same read-out and setting: the value for `CC1c2cnc(-c3ccccn3)nc2CCN1c1cc(OCCCCCC(N)=O)cc(F)n1` (stereo not shown) [Example 171, 6-[[2-fluoro-6-[5-methyl-2-(2-pyridyl)-7,8-dihydro-5H-pyrido[4,3-d]pyrimidin-6-yl]-4-pyridyl]oxy]hexanamide] was 18 nM.
Turning to `CC1c2cnc(-c3ncccn3)nc2CCN1c1cc(N(C)C)cc(F)n1` (single isomer, unassigned; (+)) [Example 206, (+)-2-fluoro-N,N-dimethyl-6-[5-methyl-2-pyrimidin-2-yl-7,8-dihydro-5H-pyrido[4,3-d]pyrimidin-6-yl]pyridin-4-amine], for the setting “HepG2.2.15 cells”, the IC50 was found to be 285 nM.
Still for that read-out and setting: then `CC1c2cnc(-c3ncccn3)nc2CCN1c1cc(F)c(F)c(OCCCCCCN)c1` (stereo not shown) [Example 59, 6-[2,3-difluoro-5-(5-methyl-2-pyrimidin-2-yl-7,8-dihydro-5H-pyrido[4,3-d]pyrimidin-6-yl)phenoxy]hexan-1-amine], with 75 nM.
Turning to `COc1cc(C)nc(N2CCc3nc(-c4ncccn4)ncc3C2C)c1` (stereo not shown) [Example 161, 6-(4-methoxy-6-methyl-2-pyridyl)-5-methyl-2-pyrimidin-2-yl-7,8-dihydro-5H-pyrido[4,3-d]pyrimidine], the IC50 under setting [1] was 95 nM.
For `CC1c2cnc(-c3ncccn3)nc2CCN1c1cc(F)c(F)c(OCC(N)=O)c1` (single isomer, unassigned; (-)) [Example 68, (−)-2-[2,3-difluoro-5-[5-methyl-2-pyrimidin-2-yl-7,8-dihydro-5H-pyrido[4,3-d]pyrimidin-6-yl]phenoxy]acetamide], the IC50 (HepG2.2.15 cells) is 74 nM.
As to `CC1c2cnc(-c3ncccn3)nc2CCN1c1cc(F)c(F)c(OCC2CSC2)c1` (stereo not shown) [Example 119, 6-[3,4-difluoro-5-(thietan-3-ylmethoxy)phenyl]-5-methyl-2-pyrimidin-2-yl-7,8-dihydro-5H-pyrido[4,3-d]pyrimidine], under setting [1], the IC50 amounted to 51 nM.
On to `CC1c2cnc(-c3ncccn3)nc2CCN1c1cc(F)c(F)c(OCC2CCOC2)c1` (stereo not shown) [Example 75, 6-[3,4-difluoro-5-(tetrahydrofuran-3-ylmethoxy)phenyl]-5-methyl-2-pyrimidin-2-yl-7,8-dihydro-5H-pyrido[4,3-d]pyrimidine], for which the IC50 under setting [1] is 21 nM.
Turning to `COCCCN(C)C(=O)c1cc(F)cc(N2CCc3nc(-c4ncccn4)ncc3C2C)c1` (stereo not shown) [Example 178, 3-fluoro-N-(3-methoxypropyl)-N-methyl-5-(5-methyl-2-pyrimidin-2-yl-7,8-dihydro-5H-pyrido[4,3-d]pyrimidin-6-yl)benzamide], the IC50 under setting [1] came to 123 nM.
The same measure, in the same setting: the value for `CC1c2cnc(-c3ncccn3)nc2CCN1c1cc(F)c(F)c(OCCC2CCCO2)c1` (stereo not shown) [Example 105, 6-[3,4-difluoro-5-(2-tetrahydrofuran-2-ylethoxy)phenyl]-5-methyl-2-pyrimidin-2-yl-7,8-dihydro-5H-pyrido[4,3-d]pyrimidine] was 23 nM.
With `CC1c2cnc(-c3ncccn3)nc2CCN1c1cc(OCC(N)=O)cc(F)n1` (stereo not shown) [Example 174, 2-[[2-fluoro-6-(5-methyl-2-pyrimidin-2-yl-7,8-dihydro-5H-pyrido[4,3-d]pyrimidin-6-yl)-4-pyridyl]oxy]acetamide], the IC50 under setting [1] amounted to 660 nM.
For the compound `CC1c2cnc(-c3ncccn3)nc2CCN1c1cc(F)c(F)c(OCC2CS(=O)(=O)C2)c1` (stereo not shown) [Example 120, 3-[[2,3-difluoro-5-(5-methyl-2-pyrimidin-2-yl-7,8-dihydro-5H-pyrido[4,3-d]pyrimidin-6-yl)phenoxy]methyl]thietane 1,1-dioxide], under setting [1], the IC50 stood at 96 nM.
As for `COc1cc(Cl)cc(N2CCc3nc(-c4ncccn4)ncc3C2C)n1` (stereo not shown) [Example 140, 6-(4-chloro-6-methoxy-2-pyridyl)-5-methyl-2-pyrimidin-2-yl-7,8-dihydro-5H-pyrido[4,3-d]pyrimidine], the IC50 under setting [1] stood at 24 nM.
Same read-out and setting: the value for `CC1c2cnc(-c3ccccn3)nc2CCN1c1cc(N2CCNC(=O)C2)cc(F)n1` (stereo not shown) [Example 222, 4-[2-fluoro-6-[5-methyl-2-(2-pyridyl)-7,8-dihydro-5H-pyrido[4,3-d]pyrimidin-6-yl]-4-pyridyl]piperazin-2-one] was 16 nM.
The same measure, in the same setting: the value for `CC1c2cnc(-c3ncccn3)nc2CCN1c1cc(OCC2CS(=O)(=O)C2)cc(F)n1` (stereo not shown) [Example 195, 3-[[2-fluoro-6-(5-methyl-2-pyrimidin-2-yl-7,8-dihydro-5H-pyrido[4,3-d]pyrimidin-6-yl)-4-pyridyl]oxymethyl]thietane 1,1-dioxide] was 55 nM.
In the case of `COc1cc(F)cc(N2CCc3nc(-c4ncccn4)ncc3C2C)c1` (single isomer, unassigned; (+)) [Example 74, (+)-6-(3-fluoro-5-methoxy-phenyl)-5-methyl-2-pyrimidin-2-yl-7,8-dihydro-5H-pyrido[4,3-d]pyrimidine], the IC50 (HepG2.2.15 cells) is 2250 nM.
Consider `CC1c2cnc(-c3ccccn3)nc2CCN1c1cc(N(C)C)cc(F)n1` (stereo not shown) [Example 216, 2-fluoro-N,N-dimethyl-6-[5-methyl-2-(2-pyridyl)-7,8-dihydro-5H-pyrido[4,3-d]pyrimidin-6-yl]pyridin-4-amine], for which the IC50 under setting [1] is 13 nM.
Consider `CC1c2cnc(-c3ncccn3)nc2CCN1c1cc(F)cc(N(C)C)n1` (single isomer, unassigned; (+)) [Example 204, (+)-4-fluoro-N,N-dimethyl-6-[5-methyl-2-pyrimidin-2-yl-7,8-dihydro-5H-pyrido[4,3-d]pyrimidin-6-yl]pyridin-2-amine], for which the IC50 (HepG2.2.15 cells) is 113 nM.
Take `CC1c2cnc(-c3ncccn3)nc2CCN1c1cc(F)cc(OCC(F)F)c1` (stereo not shown) [Example 143, 6-[3-(2,2-difluoroethoxy)-5-fluoro-phenyl]-5-methyl-2-pyrimidin-2-yl-7,8-dihydro-5H-pyrido[4,3-d]pyrimidine]: the IC50 under setting [1] stood at 22 nM.
In the case of `CC1c2cnc(-c3ncccn3)nc2CCN1c1cc(OCCCN2CCOCC2=O)cc(F)n1` (single isomer, unassigned; (-)) [Example 181, (−)-4-[3-[[2-fluoro-6-[5-methyl-2-pyrimidin-2-yl-7,8-dihydro-5H-pyrido[4,3-d]pyrimidin-6-yl]-4-pyridyl]oxy]propyl]morpholin-3-one], the IC50 under setting [1] stood at 12 nM.
For the compound `CC1c2cnc(-c3ncccn3)nc2CCN1c1cc(F)c(F)c(OCC2CN(C(=O)OC(C)(C)C)C2)c1` (stereo not shown) [Example 132, tert-butyl 3-[[2,3-difluoro-5-(5-methyl-2-pyrimidin-2-yl-7,8-dihydro-5H-pyrido[4,3-d]pyrimidin-6-yl)phenoxy]methyl]azetidine-1-carboxylate], the IC50 under setting [1] was found to be 30 nM.
As for `COc1cc(F)nc(N2CCc3nc(-c4ccccn4)ncc3C2C)c1` (stereo not shown) [Example 153, 6-(6-fluoro-4-methoxy-2-pyridyl)-5-methyl-2-(2-pyridyl)-7,8-dihydro-5H-pyrido[4,3-d]pyrimidine], under setting [1], the IC50 worked out at 22 nM.
